Measured values: ChEMBL document CHEMBL1201862, “PubChem BioAssay data set” (2004)
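96-well plates; 48 h exposure; 5 concentrations. Endpoints by linear interpolation between flanking doses. Not reached: highest tested concentration assigned. GI50 marks 50% less growth.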 Calls of active or inactive are those of the source. Cut-off read from the data, not from the text of the source: active = GI50 up to about 1.1 µM and inactive = higher.

How the values were obtained:
Experiment in all cases: growth of human tumour cells (NCI), 48 h
[1] = tested on: T47D
[2] = tested on: OVCAR-4
[3] = tested on: Malme-3M
[4] = tested on: RPMI-8226
[5] = tested on: SNB-19
[6] = tested on: SF-295
[7] = tested on: A498
[8] = tested on: CAKI-1
[9] = tested on: 786-0
[10] = tested on: HOP-92
[11] = tested on: COLO 205
[12] = tested on: UACC-257
[13] = tested on: U-251
[14] = tested on: HCT-15
[15] = tested on: SF-268
[16] = tested on: UACC-62
[17] = tested on: CCRF-CEM
[18] = tested on: NCI-H23
[19] = tested on: MDA-N
[20] = tested on: KM12
[21] = tested on: TK-10
[22] = tested on: NCI/ADR-RES
[23] = tested on: MDA-MB-231
[24] = tested on: RXF 393
[25] = tested on: Hs-578T
[26] = tested on: NCI-H226
[27] = tested on: SW-620
[28] = tested on: PC-3
[29] = tested on: ACHN
[30] = tested on: HCC 2998
[31] = tested on: SN12C
[32] = tested on: HCT-116
[33] = tested on: SK-MEL-5
[34] = tested on: UO-31
[35] = tested on: DU-145
[36] = tested on: HT-29
[37] = tested on: HL-60
[38] = tested on: NCI-H460
[39] = tested on: A549
[40] = tested on: HOP-62
[41] = tested on: NCI-H522
[42] = tested on: M14
[43] = tested on: OVCAR-8
[44] = tested on: IGROV-1
[45] = tested on: K562
[46] = tested on: MCF7
[47] = tested on: MDA-MB-435
[48] = tested on: LOX IMVI
[49] = tested on: SR
[50] = tested on: SK-MEL-28
[51] = tested on: MOLT-4
[52] = tested on: SK-OV-3
[53] = tested on: OVCAR-5
[54] = tested on: SF-539
[55] = tested on: SNB-75
[56] = tested on: SK-MEL-2
[57] = tested on: EKVX
[58] = tested on: OVCAR-3

Measured: GI50

CCN(CCCl)c1cc(CN(C)C)cc(NC(=O)c2ccc(C(=O)Nc3cccc(N(CCCl)NN)c3)cc2)c1
inactive: [22] 1.97 µM
0.455 µM: [14]
active: [1] 0.0612 µM | [2] 0.0136 µM | [3] 0.0224 µM | [4] 0.0492 µM | [5] < 0.01 µM | [6] 0.0428 µM | [7] 0.197 µM | [8] 0.0168 µM | [9] < 0.01 µM | [10] 0.0789 µM | [11] 0.0635 µM | [12] 0.174 µM | [13] 0.0101 µM | [15] 0.0129 µM | [16] < 0.01 µM | [17] < 0.01 µM | [18] 0.0242 µM | [19] 0.0301 µM | [20] 0.123 µM | [21] 0.296 µM | [23] 0.185 µM | [24] 0.0285 µM | [25] 0.0186 µM | [26] 0.145 µM | [27] < 0.01 µM | [28] 0.0142 µM | [29] < 0.01 µM | [30] 0.0546 µM | [31] 0.0332 µM | [32] 0.0277 µM | [33] 0.0461 µM | [34] 0.462 µM | [35] 0.0234 µM | [36] 0.0154 µM | [37] < 0.01 µM | [38] < 0.01 µM | [39] 0.0209 µM | [40] 0.0453 µM | [41] < 0.01 µM | [42] 0.0224 µM | [43] 0.0246 µM | [44] 0.0225 µM | [45] 0.014 µM | [46] < 0.01 µM | [47] 0.016 µM | [48] < 0.01 µM | [49] < 0.01 µM | [50] 0.192 µM | [51] < 0.01 µM | [52] 0.116 µM | [53] 0.182 µM | [54] 0.16 µM | [55] 0.0336 µM | [56] 0.0521 µM

O=C1c2cc3c(cc2CC12Cc1ccc4c(c1C2=O)CCCC4)CCCC3 (centres undefined)
inactive: [1] > 100 µM | [2] 25.9 µM | [3] 21.5 µM | [4] > 100 µM | [5] 40.8 µM | [6] 92.5 µM | [7] 21.4 µM | [8] > 100 µM | [9] 20.1 µM | [10] 21.4 µM | [12] > 100 µM | [13] 24 µM | [15] 50.2 µM | [17] > 100 µM | [18] 79.1 µM | [19] > 100 µM | [21] > 100 µM | [22] 44.7 µM | [57] > 100 µM | [23] 48.3 µM | [24] 42 µM | [25] 61.7 µM | [27] > 100 µM | [28] > 100 µM | [29] 48.1 µM | [30] > 100 µM | [32] 27.7 µM | [33] > 100 µM | [34] > 100 µM | [58] 21.1 µM | [35] > 100 µM | [36] > 100 µM | [37] > 100 µM | [38] 97.9 µM | [39] 82.6 µM | [40] 50.6 µM | [41] 85.7 µM | [42] > 100 µM | [43] 67 µM | [44] 80.7 µM | [45] > 100 µM | [46] > 100 µM | [47] > 100 µM | [48] > 100 µM | [49] > 100 µM | [50] > 100 µM | [51] > 100 µM | [52] 32.8 µM | [53] > 100 µM | [54] 36.1 µM | [55] 69.8 µM | [56] 45.6 µM
> 100 µM: [14]

O=c1ssc2ncccc12
active: [26] 0.212 µM
12.1 µM: [14]
inactive: [1] 46 µM | [3] 19.8 µM | [4] 12.9 µM | [5] 39.2 µM | [6] 33.5 µM | [7] 59.3 µM | [8] 56.6 µM | [9] 16.9 µM | [10] > 100 µM | [11] 17.9 µM | [12] 20.3 µM | [13] 15.7 µM | [15] 22.1 µM | [16] 11.6 µM | [17] 31.5 µM | [18] 28.8 µM | [19] 19 µM | [20] 20.1 µM | [21] 35.5 µM | [22] 32.6 µM | [57] 30.2 µM | [23] 11.9 µM | [24] 18.1 µM | [25] 46.3 µM | [27] 19.7 µM | [28] 44 µM | [29] 17.4 µM | [30] 19.8 µM | [31] 15.1 µM | [32] 15.2 µM | [33] 13.2 µM | [34] 16.4 µM | [58] 18.4 µM | [35] 33.7 µM | [36] 23.6 µM | [37] 42.4 µM | [38] 20.4 µM | [39] 14.9 µM | [40] 20.7 µM | [41] 7.8 µM | [42] 17.9 µM | [45] 9.66 µM | [46] 13.8 µM | [47] 15.4 µM | [48] 16.3 µM | [49] 48.2 µM | [50] 24.8 µM | [51] 64 µM | [52] > 100 µM | [53] 26 µM | [54] 30.3 µM | [55] 14.4 µM | [56] 10.4 µM
